Earlier results in US20230129072A1, “SYSTEM, PRODUCT AND METHOD FOR MAINTAINING THE VAGINAL MICROBIOME” (VAGINAL BIOME SCIENCE, INC., priority 2021, published 2023).

Tests used:
[1] = tested on: herpes simplex virus (HSV-2); details: after a single exposure

## CC(O)CO (stereo not drawn) [propylene glycol]
[1]
  susceptibility to herpes simplex virus (HSV-2): markedly increased susceptibility

## nonoxynol-9 [Example N9]
Lactobacilli spp.
  toxicity to beneficial Lactobacilli spp.: toxic

## polyethylene glycol (PEG-8)
[1]
  susceptibility to herpes simplex virus (HSV-2): markedly increased susceptibility
